Data: patent US9662322B2 (TEVA PHARMACEUTICAL INDUSTRIES, LTD., priority 2014, dated 2017)

Tested on: subjects with relapsing remitting multiple sclerosis (RRMS)
Test: ALLEGRO Phase III trial: MRI endpoints
Assay type: in vivo, human
Experimental: MRI related secondary endpoints were the cumulative number of GdE lesions at months 12 and 24; and the cumulative number of new T2 lesions (relative to previous scan) at months 12 and 24; MRI exploratory endpoints included percent change of brain volume using SIENA.
Additional MRI methodological details are as follows: In all patients, MRI scans were performed at 0, 12, and 24 months. Before a site could enroll study participants they were required to image a volunteer patient with definite MS twice with repositioning according to a strict study imaging protocol using scanners with a minimum field strength of 1.5 T. Fast/turbo spin echo (repetition time [TR]=2200-3500 ms, echo time [TE]=14-50/90-120 ms, echo train length=2-7, slice thickness=3 mm, and contiguous axial slices=44) sequences were used to obtain proton density and T2-weighted images. High resolution pre-contrast 3D T1-weighted sequences (TR=8-15 ms, TE=3-5 ms, inversion time=1.1 s, number of slices 160, slice thickness 1.2 mm, flip angle [FA]=10-15, orientation sagittal) were acquired for quantification of brain atrophy. Finally, T1-weighted images (1.5 T scanners: conventional spin echo sequence; TR=600-650 ms, TE=10-20 ms, slice thickness=3 mm, and contiguous axial slices=44; 3.0 T scanners: 3D sequence; TR=5-9 ms, TE=2-5 ms, FA=15, slice thickness=3 mm, and contiguous axial slices=44) were obtained 5 minutes after injection of 0.1 mmol/kg of gadolinium. A series of axial, coronal, and sagittal images was obtained to create an axial reference scan for subsequent careful repositioning of each patient at the follow-up session. Axial slices were positioned to run parallel to a line joining the most inferioanterior and inferioposterior parts of the corpus callosum.
Image quality was reviewed at the MRI-AC using predetermined criteria. The identification of GdE and T2-hyperintense lesions was done by consensus of two experienced observers. The number of total and new GdE lesions and new/enlarging T2-hyperintense lesions were counted. The identified lesions were then outlined by trained technicians using a semiautomated segmentation technique based on local thresholding (Jim 4.0; Xinapse System, Leicester, UK) and lesion volumes were calculated automatically. Percentage brain volume changes and cross-sectional normalized brain volumes were measured on […] T1-weighted images, with Structural Image Evaluation of Normalized Atrophy (SIENA) software and a cross-sectional method (SIENAX) (available from the FMRIB Software Library, Oxford University, Oxford, UK; http://www.fmrib.ox.ac.uk/analysis/research/siena/siena).
Analyses of the secondary MRI endpoints of the cumulative number of GdE and new/enlarging T2 lesions at 12 and 24 months involved a baseline-adjusted negative binomial regression with an “offset” employing the log of the relative exposure to adjust for early-terminated patients. The model included as covariates the number of enhancing lesions at baseline, and country or geographical region. In the case of new/enlarging T2 lesion analysis, the baseline T2 lesion volume was also added. The MRI secondary endpoints analyses were tested simultaneously with an overall type I error of 5%, using the Hochberg's step-up modification to Bonferroni's method to the two P-values obtained from the analyses of these two endpoints. The analysis of the brain atrophy endpoint involved a baseline-adjusted analysis of covariance (ANCOVA). The covariates were the number of GdE lesions at baseline and the country or region. The exploratory endpoints were all analyzed at a significance level of 5%.
Secondary endpoints of the ALLEGRO trial included disease activity as measured by MRI, including counts of Gadolinium enhancing T1 lesions and new-T2 hyperintense lesions. […] Conventional MRI scans for new T1 hypointense lesions, and brain volume using SIENA were performed at baseline, 12 and 24 months. […]

CCN(C(=O)c1c(O)c2c(Cl)cccc2n(C)c1=O)c1ccccc1 [Laquinimod, laquinimod]
BA at month 12, Effect (reduction in brain atrophy) (baseline to 12 months, vs placebo): 53% reduction | Hypointense T1 volume, BL to M 24 (change baseline to month 24): 7% | Hypointense T1 volume month 0 (month 0 (baseline)): 2.65 | T2 volume month 0 (month 0 (baseline)): 7.27 | % BV change by previous medications: naïve (post-hoc): −0.82% | GdE lesion free M 12 (post-hoc): 69% | % BV change M 24, GdE = 0, Effect (post-hoc, vs placebo): 30% reduction | % BV change M 24, GdE > 0, Effect (post-hoc, vs placebo): 37% reduction | % BV change by previous medications: naïve, Effect (post-hoc, vs placebo): 38% reduction | % BV change by previous medications: not naive, Effect (post-hoc, vs placebo): 23% reduction | BA for pts with all scans: Change BL to M 12, Effect (post-hoc, vs placebo): 60% | BA for pts with all scans: Change BL to M 24, Effect (post-hoc, vs placebo): 57% | Cum # T1 GdE by previous medications: naïve, Effect (post-hoc, vs placebo): 42% reduction | Cum # T1 GdE by previous medications: not naive, Effect (post-hoc, vs placebo): 32% reduction | Cum New T2 by previous medications: naïve, Effect (post-hoc, vs placebo): 33% reduction | Cum New T2 by previous medications: not naive, Effect (post-hoc, vs placebo): 24% reduction | GdE counts M 12, Effect (post-hoc, vs placebo): 36% reduction | GdE counts M 24, Effect (post-hoc, vs placebo): 39% reduction | GdE lesion free M 12, Effect (post-hoc, vs placebo): 49% odds | GdE lesion free M 24, Effect (post-hoc, vs placebo): 72% odds | GdE volume M 12, Effect (post-hoc, vs placebo): 4.5% | GdE volume M 24, Effect (post-hoc, vs placebo): 4.7% | New-T1 Hypointense Lesions M 12, Effect (post-hoc, vs placebo): 27% reduction | New-T1 Hypointense Lesions M 24, Effect (post-hoc, vs placebo): 32% reduction | T1 Hypointense Lesion free M 12, Effect (post-hoc, vs placebo): 28% odds | T1 Hypointense Lesion free M 24, Effect (post-hoc, vs placebo): 47% odds | T1 hypointense by previous medications: naïve, Effect (post-hoc, vs placebo): 28% reduction | T1 hypointense by previous medications: not naive, Effect (post-hoc, vs placebo): 25% reduction | T2 lesion free M 12, Effect (post-hoc, vs placebo): 39% odds | T2 lesion free M 24, Effect (post-hoc, vs placebo): 40% odds | Average MTR of T2 visible lesions, difference (vs placebo): 0.330 | Cumulative new Hypointense T1 months 12 + 24, Effect (vs placebo): 27% reduction | Cumulative number of GdE lesions at months 12 and 24, Effect (vs placebo): 37 % reduction | Cumulative number of new/enlarging T2 lesions at 12 and 24 months, Effect (vs placebo): 30% reduction | Hypointense T1 volume month 12, Effect (vs placebo): ~1% | Hypointense T1 volume month 24, Effect (vs placebo): ~1% | T2 volume month 12, Effect (vs placebo): 5% | T2 volume month 24, Effect (vs placebo): 5% | Cumulative number of new/enlarging T2 lesions at 12 and 24 months, Effect (vs placebo, listed as laquinimod): 30 % reduction
